From patent US20130280259A1, “USE OF ANTIBODIES AGAINST NK1, NK2 AND/OR NK3 RECEPTORS IN CANCER TREATMENT” (SERVICIO ANDALUZ DE SALUD, priority 2010, published 2013)

Columns and labels:
[1] = test system: primary human fibroblasts (PHF); test: Immunohistochemistry of tumour microenvironment markers in primary human fibroblasts; assay type: cell-based
Description: A sample of each of the cultures of the cell lines was centrifuged (5 minutes at 1,500 rpm) and the pellet obtained was dehydrated by treatment at growing concentrations of ethanol and finally in xylol. Then these dehydrated samples were included in paraffin creating a block of cells. These paraffin blocks were cut in a microtome at a thickness of 5 micra and deparaffinised by sinking in xylol, to be subsequently hydrated through a number of solutions containing decreasing concentrations of ethanol and be finally sank in water. Then, these samples were subject to treatment in a pressure cooker in citrate buffer 10× at pH 6.0, to obtain a higher exposure of antigens. Subsequently, the samples were cooled at room temperature for 10 minutes. The endogenous peroxidase activity was blocked with 3% hydrogen peroxide for 30 minutes at room temperature. After washing the samples with 0.05 M of Tris buffer, they were incubated with swine non-immune serum at 10% for 30 minutes at room temperature. […]
PHF were obtained and purified from samples obtained from the skin dermis as described in De Bari et al. (De Bari et al., 2001). In brief, small pieces of skin dermis were digested in a hyaluronidase solution (Sigma-Aldrich, St. Louis, Mo., US) at a concentration of 1 mg/mL for 15 minutes at 37° C. and subsequently treated with 6 mg/mL of type IV collagenase (Invitrogen) for 2 hours at 37° C. Then the cells were washed, resuspended in DMEM culture medium with a high concentration of glucose (Dulbecco's Modified Eagle's Medium, Invitrogen) supplemented with 1% of antibiotics-antimicotics (Invitrogen) and with 1% of sodium pyruvate (Invitrogen), and sown in 6-well culture plaques at a concentration of 10,000 cells per square centimetre. When the cells reached confluence, the adherent cells were separated using 0.5% sterile trypsin (Invitrogen) and were used between runs 3 and 9. For stimulation of substance P and exposure to anti-NK1, anti-NK2 and anti-NK3 antibodies, PHF were sown in 24-well plaques at a concentration of 25,000 cells per well.
For the purpose of analysing the expression of these cell markers in PHF cultures in the presence of the NK1, NK2 and NK3 receptor agonist and in the presence of anti-NK1, NK2 or NK3 antibodies, these cells were cultured in the presence of substance P (NK1, NK2 and NK3 receptor agonist) at a concentration of 1 μM (product no. S6883; Sigma-Aldrich). In other wells and simultaneously these cells were cultured with substance P at the same concentration and simultaneously together with anti-NK1, anti-NK2 or anti-NK3 antibodies (Sigma-Aldrich) at a 1/100 concentration. After 48 hours of culture, the cells were recollected and cell blocks were built for immunohistochemistry assays, as explained in example 1. In the immunohistochemistry assays, the expression of the following markers was assayed: TGF-alpha (SAB4502953), TGF-beta 1 (SAB4502954), TGF-beta 2 (SAB4502956), TGF-beta 3 (SAB4502957), SPARC(HPA002989) MMP-3 (HPA007875); MMP-7 (SAB4501894), MMP-9 (SAB4501896), MMP-11 (SAB4501898), MMP-13 (SAB4501900) and MMP-14 (SAB4501901), by specific antibodies against them. For performing these immunohistochemistry assays, all antibodies were mouse polyclonal antibodies obtained from Sigma Aldrich, used at a 1/1000 concentration. The immunohistochemistry techniques were performed as described in Example 1. The results are summarised in Table 2, that gives the type of marker and the mean percentage of cells with immunostaining for this marker.
To assess immunostaining, six serial sections were made of each block placed over slides for performing the immunohistochemistry technique for each marker. Therefore, the immunohistochemical assay was performed six times for each marker in each case. In each of the six sections, cell count was performed in 20 fields of high magnification (400×) using a microscope of Olympus brand (model CX31). […]

[2] = test system: human mononuclear blood cells; test: Immunohistochemistry of TGF-beta and NF-kB in mononuclear blood cells; assay type: cell-based; conditions: incubated with PHF; Substance P (1 μM) alone; 48 hours
Description: (§1) Heparinised blood from healthy donors was centrifuged, separating the different components thereof. Red blood cells remain in the bottom of the tube. Above them, there is a small whitish layer formed by white blood cells and above, in the upper part of the tube, blood plasma. The white blood cell layer was distributed in a culture plate of 24 wells, adding to each of them the same concentration of blood plasma supplemented with 1% of antibiotics-antimicotics (Invitrogen). About 1000 cells (PHF) from the skin dermis, obtained as described above, were added to each well.
(§2) To assess immunostaining, six serial sections were made of each block placed over slides for performing the immunohistochemistry technique for each marker. Therefore, the immunohistochemical assay was performed six times for each marker in each case. In each of the six sections, cell count was performed in 20 fields of high magnification (400×) using a microscope of Olympus brand (model CX31). In each field, the total cell number and the number of cells with immunostaining were counted, subsequently measuring the percentage of cells with this immunostaining. […]
(§3) The modification of the peritumoural microenvironment by treatment with anti-NK1, NK2 and/or NK3 antibodies has also been analysed determining the involvement of mononuclear and polymorphonuclear blood cells in this tumoural microenvironment. […]

[3] = test system: human polymorphonuclear blood cells; test: Immunohistochemistry of TGF-beta and NF-kB in polymorphonuclear blood cells; assay type: cell-based; conditions: incubated with PHF; Substance P (1 μM) alone; 48 hours
Description: as §1, §2, §3

[4] = test system: advanced pancreatic cancer, advanced gastric cancer, glioblastoma, breast cancer; conditions: breast cancer after first-line chemotherapy (Procc ASCO 1999-2002); cited from earlier work
[5] = PHF, Substance P (1 μM) alone, 48 hours

Substance P
Immunostaining for the markers tested (TGF-alpha, TGF-beta 1-3, SPARC, MMPs) ([1]; PHF cell cultures treated only with substance P): presence of all markers tested
Percentage of cells with expression for MMP-3 [1, 5]: 33.9%
Percentage of cells with expression for MMP-7 [1, 5]: 46.2%
Percentage of cells with expression for MMP-9 [1, 5]: 35.5%
Percentage of cells with expression for MMP-11 [1, 5]: 7.8%
Percentage of cells with expression for MMP-13 [1, 5]: 17.1%
Percentage of cells with expression for MMP-14 [1, 5]: 47.3%
Percentage of cells with expression for SPARC [1, 5]: 16%
Percentage of cells with expression for TGF-alpha [1, 5]: 16.5%
Percentage of cells with expression for TGF-beta 1 [1, 5]: 18.4%
Percentage of cells with expression for TGF-beta 2 [1, 5]: 24.6%
Percentage of cells with expression for TGF-beta 3 [1, 5]: 23.1%
Percentage of mononuclear cells with expression for NF-kB [2]: 25.7%
Percentage of mononuclear cells with expression for TGF-beta [2]: 16.4%
Percentage of polymorphonuclear cells with expression for NF-kB [3]: 17.5%
Percentage of polymorphonuclear cells with expression for TGF-beta [3]: 36.8%

CNC(=O)[C@@H](NC(=O)[C@H](CC(C)C)[C@H](O)C(=O)NO)C(C)(C)C [Marimastat]
Efficacy for the treatment of cancer [4]: effective
